Results as given in patent US10273231B2, “Azoline compounds substituted by a condensed ring system” (BASF SE, priority 2014, dated 2019).

Tests used:
Assay type in all cases: in vivo
[1] = system: Diamond Back Moth (Plutella xylostella); assay: B.1 Diamond back moth leaf-dip test on cabbage leaves; conditions: 3rd instar larvae, recorded 72 hours after treatment, read-out: mortality in comparison with untreated controls
Procedure: B.1 Diamond Back Moth (Plutella xylostella)
The active compound was dissolved at the desired concentration in a mixture of 1:1 (vol:vol) distilled water:aceteone. Surfactant (Kinetic HV) was added at a rate of 0.01% (vol/vol).The test solution was prepared at the day of use.
Leaves of cabbage were dipped in test solution and air-dried. Treated leaves were placed in petri dishes lined with moist filter paper and inoculated with ten 3rd instar larvae. Mortality was recorded 72 hours after treatment. Feeding damages were also recorded using a scale of 0-100%.

[2] = system: Green Peach Aphid (Myzus persicae); assay: B.2 Green peach aphid systemic test, artificial diet under membrane in microtiter plates; conditions: 72 h, adult aphids, assessed after 3 days, read-out: mortality in comparison with untreated controls
Description: B.2 Green Peach Aphid (Myzus persicae)
For evaluating control of green peach aphid (Myzus persicae) through systemic means the test unit consisted of 96-well-microtiter plates containing liquid artificial diet under an artificial membrane.
The compounds were formulated using a solution containing 75% v/v water and 25% v/v DMSO. Different concentrations of formulated compounds were pipetted into the aphid diet, using a custom built pipetter, at two replications.
After application, 5-8 adult aphids were placed on the artificial membrane inside the microtiter plate wells. The aphids were then allowed to suck on the treated aphid diet and incubated at about 23±1° C. and about 50±5% relative humidity for 3 days. Aphid mortality and fecundity was then visually assessed.

[3] = system: Vetch Aphid (Megoura viciae); assay: B.3 Vetch aphid test on broad bean leaf disks; conditions: foliar, 120 h, adult aphids, assessed after 5 days, read-out: mortality in comparison with untreated controls
Procedure: B.3 Vetch Aphid (Megoura viciae)
For evaluating control of vetch aphid (Megoura viciae) through contact or systemic means the test unit consisted of 24-well-microtiter plates containing broad bean leaf disks.
The compounds were formulated using a solution containing 75% v/v water and 25% v/v DMSO. Different concentrations of formulated compounds were sprayed onto the leaf disks at 2.5 μl, using a custom built micro atomizer, at two replications.
After application, the leaf disks were air-dried and 5-8 adult aphids placed on the leaf disks inside the microtiter plate wells. The aphids were then allowed to suck on the treated leaf disks and incubated at about 23±10C and about 50±5% relative humidity for 5 days. Aphid mortality and fecundity was then visually assessed.

[4] = system: Tobacco Budworm (Heliothis virescens); assay: B.4 Tobacco budworm test, insect diet with eggs in microtiter plates; conditions: 120 h, egg and larval mortality after 5 days, read-out: mortality in comparison with untreated controls
Procedure: B.4 Tobacco Budworm (Heliothis virescens)
For evaluating control of tobacco budworm (Heliothis virescens) the test unit consisted of 96-well-microtiter plates containing an insect diet and 15-25 H. virescens eggs.
The compounds were formulated using a solution containing 75% v/v water and 25% v/v DMSO. Different concentrations of formulated compounds were sprayed onto the insect diet at 10 μl, using a custom built micro atomizer, at two replications.
After application, microtiter plates were incubated at about 28±10C and about 80±5% relative humidity for 5 days. Egg and larval mortality was then visually assessed.

[5] = system: Boll Weevil (Anthonomus grandis); assay: B.5 Boll weevil test, insect diet with eggs in microtiter plates; conditions: 120 h, egg and larval mortality after 5 days, read-out: mortality in comparison with untreated controls
Procedure: B.5 Boll Weevil (Anthonomus grandis)
For evaluating control of boll weevil (Anthonomus grandis) the test unit consisted of 96-well-microtiter plates containing an insect diet and 5-10 A. grandis eggs.
(§1) The compounds were formulated using a solution containing 75% v/v water and 25% v/v DMSO. Different concentrations of formulated compounds were sprayed onto the insect diet at 5 μl, using a custom built micro atomizer, at two replications.
After application, microtiter plates were incubated at about 25±1° C. and about 75±5% relative humidity for 5 days. Egg and larval mortality was then visually assessed.

[6] = system: Mediterranean Fruitfly (Ceratitis capitata); assay: B.6 Mediterranean fruitfly test, insect diet with eggs in microtiter plates; conditions: 120 h, egg and larval mortality after 5 days, read-out: mortality in comparison with untreated controls
Procedure: B.6 Mediterranean Fruitfly (Ceratitis capitata)
as §1, with “For evaluating control of Mediterranean fruitfly (Ceratitis capitata) the test unit consisted of microtiter plates containing an insect diet and 50-80 C. capitata eggs. The” for “The”
After application, microtiter plates were incubated at about 28±1° C. and about 80+5% relative humidity for 5 days. Egg and larval mortality was then visually assessed.

[7] = system: Orchid Thrips (Dichromothrips Corbetti); assay: B.7 Orchid thrips floral-immersion test; conditions: adult thrips, recorded 72 hours after treatment, read-out: mortality in comparison with untreated controls
Procedure: B.7 Orchid Thrips (Dichromothrips Corbetti) Dichromothrips corbettiadults used for bioassay were obtained from a colony maintained continuously under laboratory conditions. For testing purposes, the test compound is diluted in a 1:1 mixture of acetone:water (vol:vol), plus Kinetic HV at a rate of 0.01% v/v.
Thrips potency of each compound was evaluated by using a floral-immersion technique. All petals of individual, intact orchid flowers were dipped into treatment solution and allowed to dry in Petri dishes. Treated petals were placed into individual re-sealable plastic along with about 20 adult thrips. All test arenas were held under continuous light and a temperature of about 28° C. for duration of the assay. After 3 days, the numbers of live thrips were counted on each petal. The percent mortality was recorded 72 hours after treatment.

[8] = system: Rice Green Leafhopper (Nephotettix virescens); assay: B.8 Rice green leafhopper test on sprayed rice seedlings; conditions: adults, recorded after 72 hours, read-out: mortality in comparison with untreated controls
Procedure: B.8 Rice Green Leafhopper (Nephotettix virescens)
Rice seedlings were cleaned and washed 24 hours before spraying. The active compounds were formulated in 1:1 acetone:water (vol:vol), and 0.01% vol/vol surfactant (Kinetic HV) was added. Potted rice seedlings were sprayed with 5-6 ml test solution, air dried, covered with Mylar cages cages and inoculated with 10 adults. Treated rice plants were kept at about 28-29° C. and relative humidity of about 50-60%. Percent mortality was recorded after 72 hours.

[9] = system: Red Spider Mite (Tetranychus kanzawai); assay: B.9 Red spider mite test on sprayed cowpea beans; conditions: assessed 72 hours after treatment, read-out: mortality in comparison with untreated controls
Procedure: B.9 Red Spider Mite (Tetranychus kanzawai)
The active compound was dissolved at the desired concentration in a mixture of 1:1 (vol:vol) distilled water:acetone. Add surfactant (Kinetic HV) was added at a rate of 0.01% (vol/vol).The test solution was prepared at the day of use.
Potted cowpea beans of 4-5 days of age were cleaned with tap water and sprayed with 1-2 ml of the test solution using air driven hand atomizer. The treated plants were allowed to air dry and afterwards inoculated with 30 or more mites by clipping a cassava leaf section from rearing population. Treated plants were placed inside a holding room at about 25-27° C. and about 50-60% relative humidity. Percent mortality was assessed 72 hours after treatment.

[10] = system: Southern Armyworm (Spodoptera eridania); assay: B.10 Southern armyworm test on sprayed lima bean plants; conditions: 96 h, larvae, assessed 4 days after treatment, read-out: mortality in comparison with untreated controls
Procedure: B.10 Southern Armyworm (Spodoptera eridania)
The active compounds were formulated in cyclohexanone as a 10,000 ppm solution supplied in tubes. The tubes were inserted into an automated electrostatic sprayer equipped with an atomizing nozzle and they served as stock solutions for which lower dilutions were made in 50% acetone:50% water (v/v). A nonionic surfactant (Kinetic®) was included in the solution at a volume of 0.01% (v/v).
Lima bean plants (variety Sieva) were grown 2 plants to a pot and selected for treatment at the 1st true leaf stage. Test solutions were sprayed onto the foliage by an automated electrostatic plant sprayer equipped with an atomizing spray nozzle. The plants were dried in the sprayer fume hood and then removed from the sprayer. Each pot was placed into perforated plastic bags with a zip closure. About 10 to 11 armyworm larvae were placed into the bag and the bags zipped closed. Test plants were maintained in a growth room at about 250C and about 20-40% relative humidity for 4 days, avoiding direct exposure to fluorescent light (24 hour photoperiod) to prevent trapping of heat inside the bags. Mortality and reduced feeding were assessed 4 days after treatment, compared to untreated control plants.

[11] = system: Green Soldier Stink Bug (Nezara viridula); assay: B.11 Green soldier stink bug test on soybean pods in Petri dishes; conditions: 120 h, late 3rd instar, recorded after 5 days, read-out: mortality in comparison with untreated controls
Procedure: B.11 Green Soldier Stink Bug (Nezara viridula)
(§2) The active compound was dissolved at the desired concentration in a mixture of 1:1 (vol:vol) distilled water:acetone. Surfactant (Kinetic HV) was added at a rate of 0.01% (vol/vol).The test solution was prepared at the day of use.
Soybean pods were placed in glass Petri dishes lined with moist filter paper and inoculated with ten late 3rd instar N. viridula. Using a hand atomizer, approximately 2 ml solution is sprayed into each Petri dish. Assay arenas were kept at about 25° C. Percent mortality was recorded after 5 days.

[12] = system: Neotropical Brown Stink Bug (Euschistus heros); assay: B.12 Neotropical brown stink bug test on soybean pods in plastic cups; conditions: 120 h, adult stage, recorded after 5 days, read-out: mortality in comparison with untreated controls
Procedure: B.12 Neotropical Brown Stink Bug (Euschistus heros)
as §2
Soybean pods were placed in microwavable plastic cups and inoculated with ten adult stage E. heros. Using a hand atomizer, approximately 1 ml solution is sprayed into each cup, insects and food present. A water source was provided (cotton wick with water). Each treatment was replicated 2-fold. Assay arenas were kept at about 25° C. Percent mortality was recorded after 5 days.

[13] = system: Brown Marmorated Stink Bug (Halyomorpha halys); assay: B.13 Brown marmorated stink bug test on peanuts and soybean seeds in plastic cups; conditions: 120 h, adult stage, recorded after 5 days, read-out: mortality in comparison with untreated controls
Procedure: B.13 Brown Marmorated Stink Bug (Halyomorpha halys)
as §2
Row peanuts and soybean seeds were placed into microwavable plastic cups and inoculated with five adult stage H. halys. Using a hand atomizer, approximately 1 ml solution is sprayed into each cup, insects and food present. A water source was provided (cotton wick with water). Each treatment is replicated 4-fold. Assay arenas are kept at about 25° C. Percent mortality was recorded after 5 days.

O=C(NC1CS(=O)(=O)C1)c1ccc(C2=NOC(c3cc(Cl)c(F)c(Cl)c3)(C(F)(F)F)C2)c2c1SCC2 (centres unmarked) [Compound I-7, 4-[5-(3,5-dichloro-4-fluoro-phenyl)-5-(trifluoromethyl)-4H-isoxazol-3-yl]-N-(1,1-dioxothietan-3-yl)-2,3-dihydrobenzothiophene-7-carboxamide]
≥ 75%: mortality at 300 ppm [1] | mortality at 2500 ppm [2] | mortality at 2500 ppm [3] | mortality at 2500 ppm [4] | mortality at 2500 ppm [5] | mortality at 2500 ppm [6] | mortality at 300 ppm [7] | mortality at 300 ppm [8] | mortality at 300 ppm [9] | mortality at 10 ppm [10] | mortality at 300 ppm [11] | mortality at 100 ppm [12] | mortality at 100 ppm [13]

CCCC(=O)NCc1ccc(C2=NOC(c3cc(Cl)c(F)c(Cl)c3)(C(F)(F)F)C2)c2c1OCC2 (centres unmarked) [Compound I-16, N-[[4-[5-(3,5-dichloro-4-fluoro-phenyl)-5-(trifluoromethyl)-4H-isoxazol-3-yl]-2,3-dihydrobenzofuran-7-yl]methyl]butanamide]
≥ 75%: mortality at 300 ppm [1] | mortality at 2500 ppm [2] | mortality at 2500 ppm [3] | mortality at 2500 ppm [4] | mortality at 2500 ppm [5] | mortality at 2500 ppm [6] | mortality at 300 ppm [7] | mortality at 300 ppm [8] | mortality at 300 ppm [9] | mortality at 300 ppm [11]
